Results reported in patent US20240415869A1, “COMPOSITIONS, SYSTEMS, AND METHODS FOR TREATING CANCER USING TUMOR TREATING FIELDS (TTFIELDS) AND THIOREDOXIN/GLUTATHIONE INHIBITORS” (Novocure GmbH G, priority 2023, published 2024).

Experiments:
[1] = system: cancer cells; details: piperlongumine combined with erastin; cited from earlier work
[2] = molecular target: T1, glutathione peroxidase 4 (GPX4) (Homo sapiens, UniProt P36969); details: selective and covalent inhibitor; cited from earlier work
T1 sequence (P36969 1-197): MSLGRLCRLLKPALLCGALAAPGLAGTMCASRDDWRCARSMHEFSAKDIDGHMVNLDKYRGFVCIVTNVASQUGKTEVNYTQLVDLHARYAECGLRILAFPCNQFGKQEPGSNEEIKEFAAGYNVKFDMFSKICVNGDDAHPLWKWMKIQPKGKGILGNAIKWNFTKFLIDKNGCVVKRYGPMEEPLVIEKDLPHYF

[3] = system: mitochondrial toxicity; details: cited from earlier work
[4] = molecular target: T2, cytosolic thioredoxin reductase 1 (TXNRD1) (Homo sapiens, UniProt Q16881); details: irreversible inhibitor; cited from earlier work
T2 sequence (Q16881 151-649 limits assumed): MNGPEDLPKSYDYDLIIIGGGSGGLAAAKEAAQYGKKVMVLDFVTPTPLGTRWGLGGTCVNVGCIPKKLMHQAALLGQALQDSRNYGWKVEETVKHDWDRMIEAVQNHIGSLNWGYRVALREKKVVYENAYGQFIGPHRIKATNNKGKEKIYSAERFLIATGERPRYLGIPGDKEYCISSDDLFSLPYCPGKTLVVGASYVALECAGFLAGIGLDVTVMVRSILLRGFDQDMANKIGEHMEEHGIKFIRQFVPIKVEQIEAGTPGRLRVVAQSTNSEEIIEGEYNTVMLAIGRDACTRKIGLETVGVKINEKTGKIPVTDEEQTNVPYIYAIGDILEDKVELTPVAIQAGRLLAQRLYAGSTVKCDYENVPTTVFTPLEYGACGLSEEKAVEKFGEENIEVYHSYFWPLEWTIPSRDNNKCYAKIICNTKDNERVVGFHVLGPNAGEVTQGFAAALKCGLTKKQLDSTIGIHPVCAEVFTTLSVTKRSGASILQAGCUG

[5] = molecular target: T3, wild-type human TrxR1 (Homo sapiens, UniProt Q16881); details: cited from earlier work
T3 sequence (Q16881 151-649 limits assumed): T2 sequence (Q16881 151-649 limits assumed)

[6] = system: GBM cell lines and GSCs; details: cited from earlier work
[7] = system: glioblastoma stem cells (GSCs); details: cited from earlier work
[8] = system: GSCs and GBM cell lines; details: lower IC50s for GSCs compared to GBM cell lines; cited from earlier work
[9] = system: GBM cell lines; details: cited from earlier work
[10] = system: glioblastoma stem cells (GSCs); assay: Auranofin plus TTFields in glioblastoma stem cells (Example 2); format: cell-based; details: combined with TTFields
Description: In vitro—To assess the effect of this trimodal therapy, GSCs are exposed to AU (auranofin, 0.50 μM), RT (3 Gy), TTFields, TTFields+AU, TTFields+RT, and the combination of all three treatments (AU+RT+TTFields). The GSCs are assessed for the following: (i) a neurosphere formation assay; (ii) ROS Intracellular levels; (iii) MitoTracker™ assessment of mitochondrial membrane potential; and (iv) TrXR1 and GSH activity assays.
In vivo—To further investigate the effect of ROS-inducing trimodal therapy (RT+AU+TTFields) in vivo, subcutaneous injections of GSCs 1123S and 528 stably transduced with luciferase are performed. GCSs are injected (3×10^5 cells 10 μl) to the right flank of mice. Treatment is started when tumors can be visualized by BLI upon injection of D-luciferin substrate. Blood is collected to monitor potential toxicities. The tumor is exposed to snap-freezing and then processed for WB and for tissue formalin fixation for further IHC analysis of p53, MGMT, and TrxR1-associated genes.

[11] = molecular target: T4, glutathione reductase (Homo sapiens, UniProt P00390); details: irreversible inhibitor; cited from earlier work
T4 sequence (P00390 44-522): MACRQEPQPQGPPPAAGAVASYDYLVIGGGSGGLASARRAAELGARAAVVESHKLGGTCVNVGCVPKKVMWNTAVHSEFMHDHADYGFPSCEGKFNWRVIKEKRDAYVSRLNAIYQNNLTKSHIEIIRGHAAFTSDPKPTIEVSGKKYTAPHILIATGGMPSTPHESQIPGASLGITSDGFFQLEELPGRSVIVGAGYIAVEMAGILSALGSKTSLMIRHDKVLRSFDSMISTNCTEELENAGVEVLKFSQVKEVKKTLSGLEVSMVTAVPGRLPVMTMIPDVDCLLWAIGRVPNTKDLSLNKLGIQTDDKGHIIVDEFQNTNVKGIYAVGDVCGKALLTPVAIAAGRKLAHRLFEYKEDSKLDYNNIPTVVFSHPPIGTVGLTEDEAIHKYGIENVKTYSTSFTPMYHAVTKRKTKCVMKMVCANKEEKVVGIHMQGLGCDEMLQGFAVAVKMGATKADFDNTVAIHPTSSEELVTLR

COc1cc(/C=C/C(=O)N2CCC=CC2=O)cc(OC)c1OC [piperlongumine]
effect of combination over either treatment alone [1]: synergistic effect

Cc1onc(C(=O)N2CCN(C(c3ccc(Cl)cc3)c3ccc(Cl)cc3)CC2)c1[N+](=O)[O-] [ML-210]
EC50 [2]: 30 nM

COc1ccc([N+](=O)[O-])c(S(=O)(=O)c2ccc(Cl)cc2)n1 [TRi-1]
mitochondrial toxicity [3]: little mitochondrial toxicity for anticancer therapy.
IC50 [4]: 12 nM

O=c1c2ccccc2[se]n1CCn1[se]c2ccccc2c1=O [Ethaselen, 1,2-[bis(1,2-benzisoselenazolone-3 (2H)-ketone)]ethane]
IC50 [5]: 500 nM

CC(=O)OC[C@H]1O[C@@H]([S-])[C@H](OC(C)=O)[C@@H](OC(C)=O)[C@@H]1OC(C)=O.CCP(CC)CC.[Au+] [Auranofin]
intracellular ROS ([6]; GBM cell lines and GSCs, auranofin alone): significantly increases
ROS, combination with radiation therapy ([6]; GSCs, auranofin with RT): synergistically increases
neurosphere formation ability [7]: decreased
cell survival [8]: decreased
clonogenic potential [9]: decreased
effect of combination of Auranofin and TTFields [10]: synergistic effect

N[C@@H](CCC(=O)N[C@@H](CSc1ccc([N+](=O)[O-])cc1[N+](=O)[O-])C(=O)NCC(=O)O)C(=O)O [(2,4-Dinitrophenyl)glutathione, S-(2,4-Dinitrophenyl)glutathione]
Ki [11]: 30 µM
